In patent US20260193221A1, “SOLID FORMS COMPRISING (5R,6S)-10,11-DIFLUORO-12-((2-FLUORO-4-IODOPHENYL)AMINO)-5,6-DIHYDROXY-4,5,6,7-TETRAHYDRO-1H-SPIRO[BENZO[B][1,5,4]OXATHIAZECINE-3,1'-CYCLOPROPANE] 2,2-DIOXIDE, AND COMPOSITIONS COMPRISING AND METHODS OF USING THE SAME” (PASITHEA THERAPEUTICS CORP., priority 2024, published 2026):
Converted amounts (≈) assume the structure as drawn. “Also recorded” adds a separate entry of the source. Read-outs that look alike come from different tables or passages of the source. Blank lines part the entries; values can stand above or below the molecule they belong to.

Assays:
[1] = Solubility, Experiment 2 (target concentration 5 mg/mL); assay type: physicochemical; details: for Solubility: 37° C.
Protocol: (§1) Experiment 2: 5 mg of Form A and 5 mg of amorphous form were weighed into an 8 mL glass vial, respectively. 1 mL of solubility medium was added. Obtained suspensions/solutions were stirred at 37° C. at 400 rpm and sampled at 2 hours and at 24 hours. Obtained suspensions/solutions were filtered through a 0.45 μm PVDF membrane filter by centrifugation at 14,000 rpm and at 37° C. Filtrate were analyzed by HPLC and pH meter for solubility and pH value, respectively.

[2] = Solubility, Experiment 1 (target concentration 2 mg/mL); assay type: physicochemical; details: for Solubility / XRPD of residual solid: 37° C.
Protocol: as §1, with “Experiment 1:” for “Experiment 2:”, “respectively. 2.5” for “respectively. 1”, “respectively. Residual solids (wet cakes) from the 24 hours samples were also characterized by XRPD to determine physical form.” for “respectively.”

[3] = Phase 1 clinical trial, safety and tolerability; assay type: in vivo, human
From the text: (§2) A Phase 1 Open-Label Study to Assess the Safety, Tolerability, Pharmacokinetics, and Pharmacodynamics of Compound 1 in Patients with MAPK Pathway-Driven Advanced Solid Tumors with a Documented RAS, NF1, or RAF Mutation or Patients Who have Failed BRAF/MEK Inhibition
(§3) The Phase 1 clinical trial is a multi-center, open-label, dose escalation 3+3 study design to evaluate the safety, tolerability, pharmacokinetic (PK), pharmacodynamic (PD), and preliminary efficacy of Compound 1 in patients with MAPK pathway driven advanced solid tumors with a documented RAS, NF or RAF mutation or patients who have failed BRAF/MEK inhibition.
(§4) Patients with histologically or cytologically diagnosed mitogen-activated protein kinase (MAPK) pathway driven advanced solid tumors with all of the following characteristics qualified for enrollment: • i. tumor cannot be surgically resected • ii. patient has failed or is ineligible for standard of care therapy • iii. patient has no available treatment options with known clinical benefit • iv. documented evidence of rat sarcoma virus (RAS), neurofibromatosis type I (NF1), and/or rapidly accelerated fibrosarcoma (RAF) mutations. Patients with RAF mutations must have previously failed v-Raf murine sarcoma viral oncogene homolog B (BRAF)/MEK inhibition.
(§5) Patients in the study were administered Compound 1 by mouth as a single dose, followed by one week observation, then once a day during the study, in 28-day cycles. Participants will continue on daily Compound 1 for up to 2 years, or until: • i. they decide to withdraw from the study, or • ii. they experience unacceptable side effects, or • iii. their disease progresses, or another illness interferes with taking the study drug, or • iv. the sponsors stops the study.
(§6) In this study, Compound 1 was presented in 1 mg, 4 mg, and 10 mg strength capsules, intended for oral administration once daily. Sequential dose escalation is: 2 mg, 4 mg, 8 mg, 15 mg, 22 mg, 30 mg, 37 mg, and 45 mg.

[4] = Phase 1 clinical trial, pharmacokinetics; assay type: in vivo, human; details: for AUC0-24 / Cmin / half-life / Cmax: patients; for AUC0-24 / Cmin / Cmax: geometric mean (geometric CV %); for half-life / Cmax: human, plasma, po
From the text: as §2, §3, §4, §5, §6

[5] = Mechanic properties (compression, dry grinding, wet granulation simulation); assay type: physicochemical
Protocol: Compression simulation experiments: about 20 mg of Form A was compressed for 5 minutes under 2 MPa, 5 MPa and 10 MPa with a hydraulic press. Potential form change and degree of crystallinity were evaluated by XRPD.
Dry grinding simulation experiments: about 20 mg of Form A was ground manually with a mortar and a pestle for 5 min. Potential form change and degree of crystallinity were evaluated by XRPD.
Wet granulation simulation experiments: water or ethanol was added drop-wisely to about 20 mg of Form A until the sample was wetted sufficiently. Wet sample was ground gently with in a mortar and a pestle for 5 min. Post granulation sample was dried under ambient condition for 10 min. Potential form change and degree of crystallinity were evaluated by XRPD.

Hygroscopicity by DVS = assay type: physicochemical
Protocol: Water sorption and desorption behavior Form A was investigated by DVS at 25° C. with a cycle of 40-0-95-0-40% RH. XRPD was measured after the DVS test to determine form change. […] The DVS test measured 0.4% water uptake from 40% to 80% RH, see FIG. 4.

Bulk stability = assay type: physicochemical; details: 25° C./92.5% RH open, 40° C./75% RH open, 60° C. closed container; 1 week
Protocol: Form A was placed at 25° C./92.5% RH in an open container, at 40° C./75% RH in an open container, and at 60° C. in a closed container for 1 week. Samples after the stress were characterized by XRPD and HPLC and inspected for color change.

[6] = Acetate buffer (50 mM), pH 4.5, 24 h
[7] = Acetate buffer (50 mM), pH 4.5, 24 h, target concentration 2 mg/mL
[8] = FaSSGF, pH 1.6, 24 h, target concentration 2 mg/mL
[9] = FaSSIF-v1, pH 6.5, 2 h, target concentration 2 mg/mL
[10] = FaSSIF-v1, pH 6.5, 24 h, target concentration 2 mg/mL
[11] = HCl solution, pH 1.2, 24 h, target concentration 2 mg/mL
[12] = Phosphate buffer (50 mM), pH 6.8, 24 h
[13] = Phosphate buffer (50 mM), pH 6.8, 24 h, target concentration 2 mg/mL
[14] = 2 mg, Day 22 (steady state), oral once daily
[15] = 4 mg, Day 22 (steady state), oral once daily

Solubility ([1]; FeSSIF-v1, pH 5.0, 2 h): >5000 µg/mL
Solubility ([1]; FeSSIF-v1, pH 5.0, 24 h): >5000 µg/mL
Solubility ([2]; Acetate buffer (50 mM), pH 4.5, 2 h, target concentration 2 mg/mL): 17 µg/mL (≈ 29.8 µM)
XRPD of residual solid [2, 6]: Amorphous
Solubility [2, 7]: 17 µg/mL (≈ 29.8 µM)
Solubility ([2]; FaSSGF, pH 1.6, 2 h, target concentration 2 mg/mL): 16 µg/mL (≈ 28.1 µM)
XRPD of residual solid ([2]; FaSSGF, pH 1.6, 24 h): Amorphous
Solubility [2, 8]: 14 µg/mL (≈ 24.5 µM)
Solubility [2, 9]: 1100 µg/mL (≈ 1930 µM)
XRPD of residual solid ([2]; FaSSIF-v1, pH 6.5, 24 h): Amorphous
Solubility [2, 10]: 1200 µg/mL (≈ 2100 µM)
Solubility ([2]; FeSSIF-v1, pH 5.0, 2 h, target concentration 2 mg/mL): >2000 µg/mL
Solubility ([2]; FeSSIF-v1, pH 5.0, 24 h, target concentration 2 mg/mL): >2000 µg/mL
Solubility ([2]; HCl solution, pH 1.2, 2 h, target concentration 2 mg/mL): 14 µg/mL (≈ 24.5 µM)
XRPD of residual solid ([2]; HCl solution, pH 1.2, 24 h): Form A
Solubility [2, 11]: 13 µg/mL (≈ 22.8 µM)
Solubility ([2]; Phosphate buffer (50 mM), pH 6.8, 2 h, target concentration 2 mg/mL): 16 µg/mL (≈ 28.1 µM)
XRPD of residual solid [2, 12]: Amorphous
Solubility [2, 13]: 16 µg/mL (≈ 28.1 µM)
Solubility ([2]; Water, 2 h, target concentration 2 mg/mL): 38 µg/mL (≈ 66.6 µM)
XRPD of residual solid ([2]; Water, 24 h): Amorphous
Solubility ([2]; Water, 24 h, target concentration 2 mg/mL): 34 µg/mL (≈ 59.6 µM)
SMILES: O=S1(=O)Nc2c(cc(F)c(F)c2Nc2ccc(I)cc2F)OC[C@H](O)[C@H](O)CC12CC2 [Amorphous form, (5R,6S)-10,11-difluoro-12-((2-fluoro-4-iodophenyl)amino)-5,6-dihydroxy-4,5,6,7-tetrahydro-1H-spiro[benzo[b][1,5,4]oxathiazecine-3,1′-cyclopropane]2,2-dioxide]

Dose dependence of plasma exposure ([4]; 2 mg and 4 mg cohorts): linear PK was observed
AUC0-24 ([4]; 2 mg, Day 1, oral): 86.3 (89.2) ng*h/mIL
AUC0-24 [4, 14]: 354 (95.2) ng*h/mIL
Cmin [4, 14]: 10.2 (119.4) ng/mL
AUC0-24 ([4]; 4 mg, Day 1, oral): 100 (97.1) ng*h/mIL
AUC0-24 [4, 15]: 1,390 (12.8) ng*h/mIL
Cmin [4, 15]: 51.5 (20.8) ng/mL
time at which drug levels peaked ([4]; at steady-state, 2 mg and 4 mg dose groups): about 5 hours
half-life ([4]; 2 mg and 4 mg cohorts, oral, read-out: half-life (converted)): ~70 h
half-life ([4]; 2 mg and 4 mg cohorts, oral, read-out: mean elimination half-life (converted)): 67.9 h
Cmax ([4]; 2 mg, Day 1, oral): 4.91 ng/mL
Cmax [4, 14]: 16.2 ng/mL
Cmax ([4]; 4 mg, Day 1, oral): 6.36 ng/mL
Cmax [4, 15]: 61.3 ng/mL
Cmax/Cmin ratio ([4]; plasma concentration at steady state): 1.2
SMILES: O=S1(=O)Nc2c(cc(F)c(F)c2Nc2ccc(I)cc2F)OC[C@H](O)[C@H](O)CC12CC2 [Compound 1, (5R,6S)-10,11-difluoro-12-((2-fluoro-4-iodophenyl)amino)-5,6-dihydroxy-4,5,6,7-tetrahydro-1H-spiro[benzo[b][1,5,4]oxathiazecine-3,1′-cyclopropane]2,2-dioxide]
Rash or skin, gastrointestinal (GI), ocular toxicity ([3]; 2 and 4 mg dose levels): without showing adverse side effects such as rash or GI toxicity; also recorded: no rash or skin toxicity, gastrointestinal (GI) toxicity, or ocular toxicity have been observed
Drug-related serious adverse events (SAE) ([3]; any dose arm): no drug-related serious adverse events
Drug-related dose interruptions, reductions or discontinuations ([3]; first 2 dosing cohorts (n=6)): no drug-related dose interruptions, reductions or discontinuations
Tolerability ([3]; first 2 dosing cohorts (n=6), 2 mg and 4 mg): well-tolerated

Crystallinity after compression (XRPD) ([5]; compressed 5 minutes under 2 MPa, 5 MPa and 10 MPa): No obvious decrease in crystallinity
Crystallinity after dry grinding (XRPD) ([5]; ground manually with mortar and pestle for 5 min): Only a slight decrease in crystallinity
Crystallinity after wet granulation (XRPD) ([5]; water or ethanol, ground 5 min, dried 10 min): Only a slight decrease in crystallinity
Water uptake (DVS) (Hygroscopicity by DVS; 25° C., from 40% to 80% RH): 0.4%
Hygroscopicity (Hygroscopicity by DVS; DVS at 25° C., cycle 40-0-95-0-40% RH): slightly hygroscopic
XRPD after the DVS test (form change) (Hygroscopicity by DVS; after DVS cycle 40-0-95-0-40% RH): no form change
solubility at 24 h ([1]; FeSSIF-v1, pH 5.0, 37 °C, pH 5, fessif, thermodynamic from solid, 24 h): 3000 µg/mL (≈ 5260 µM)
Solubility ([1]; FeSSIF-v1, pH 5.0, 2 h): 2400 µg/mL (≈ 4210 µM)
XRPD of residual solid [2, 6]: Form A
Solubility [2, 7]: 5.1 µg/mL (≈ 8.94 µM)
solubility at 2 h ([2]; FaSSGF, pH 1.6, 37 °C, pH 1.6, fassgf or other biorelevant, thermodynamic from solid, pH 1.6, 2 h, target concentration 2 mg/mL): 12 µg/mL (≈ 21 µM)
XRPD of residual solid ([2]; FaSSGF, pH 1.6, 24 h): Form A
Solubility [2, 8]: 6.3 µg/mL (≈ 11 µM)
Solubility [2, 9]: 270 µg/mL (≈ 473 µM)
XRPD of residual solid ([2]; FaSSIF-v1, pH 6.5, 24 h): Form A
Solubility [2, 10]: 330 µg/mL (≈ 579 µM)
solubility at 2 h ([2]; FeSSIF-v1, pH 5.0, 37 °C, pH 5, fessif, thermodynamic from solid, FeSSIF-v1, pH 5.0, 2 h, target concentration 2 mg/mL): 1800 µg/mL (≈ 3160 µM)
solubility at 24 h ([2]; FeSSIF-v1, pH 5.0, 37 °C, pH 5, fessif, thermodynamic from solid, FeSSIF-v1, pH 5.0, 24 h, target concentration 2 mg/mL): ≥ 2000 µg/mL
solubility at 2 h ([2]; HCl solution, pH 1.2, 37 °C, pH 1.2, simulated gastric fluid, thermodynamic from solid, pH 1.2, 2 h, target concentration 2 mg/mL): 12 µg/mL (≈ 21 µM)
XRPD of residual solid ([2]; HCl solution, pH 1.2, 24 h): Form A
Solubility [2, 11]: 3.7 µg/mL (≈ 6.49 µM)
XRPD of residual solid [2, 12]: Form A
Solubility [2, 13]: 5.1 µg/mL (≈ 8.94 µM)
XRPD of residual solid ([2]; Water, 24 h): Form A
solubility at 2 h ([2]; acetate buffer (50 mM), pH 4.5, 37 °C, pH 4.5, aqueous buffer, thermodynamic from solid, pH 4.5, 2 h, target concentration 2 mg/mL): 12 µg/mL (≈ 21 µM)
solubility at 2 h ([2]; phosphate buffer (50 mM), pH 6.8, 37 °C, pH 6.8, aqueous buffer, thermodynamic from solid, pH 6.8, 2 h, target concentration 2 mg/mL): 13 µg/mL (≈ 22.8 µM)
solubility at 2 h ([2]; water, 37 °C, thermodynamic from solid, 2 h, target concentration 2 mg/mL): 19 µg/mL (≈ 33.3 µM)
Color change after stress (Bulk stability): no change of color was observed
Physical form after stress (XRPD) (Bulk stability): Form A was confirmed
SMILES: O=S1(=O)Nc2c(cc(F)c(F)c2Nc2ccc(I)cc2F)OC[C@H](O)[C@H](O)CC12CC2 [Form A, (5R,6S)-10,11-difluoro-12-((2-fluoro-4-iodophenyl)amino)-5,6-dihydroxy-4,5,6,7-tetrahydro-1H-spiro[benzo[b][1,5,4]oxathiazecine-3,1′-cyclopropane]2,2-dioxide]
